The source of these data is ChEMBL document CHEMBL1155026, “Biaryl and heteroaryl derivatives of SCH 58261 as potent and selective adenosine A2A receptor antagonists” (Bioorg Med Chem Lett, 2008).

The term AUC(0-t) denotes exposure summed from dosing to a finite time, without extrapolation to infinity. A high value points to more exposure. For orientation: Ki means a dissociation constant, usually derived from enzyme kinetics or from competition with a known ligand. A high value points to a looser hold on the target. Broadly, the kinetic solubility is the concentration staying in solution when a stock, usually in DMSO, is diluted into the medium. For orientation: inhibition in vivo means the share of the control response that was lost under treatment. A higher inhibition in vivo goes with strong suppression.

A short description of data set [1]: AUC (0 to 6 hrs) in rat at 3 mg/kg, po. It is filed as ADME, organism-based. Also on record: time < 6 hr, dose 3 mg/kg, route oral. The settings on record: plasma.
In the next data set the target is Adenosine receptor A2a (Homo sapiens, UniProt P29274).
Data set [2] in a line: Kinetic solubility of compound at pH 7.4 by nephelometry. The settings on record: buffer. It is filed as physicochemical.
Data set [3] has as its system Rattus norvegicus. Briefly: Inhibition of haloperidol-induced catalepsy in rat at 3 mg/kg, po after 4 hrs. It is filed as functional.
The test system of data set [4] is Rattus norvegicus. The experiment in a line: Inhibition of haloperidol-induced catalepsy in rat at 3 mg/kg, po after 1 hr. It is filed as functional.
Data set [5] has as its system Rattus norvegicus. Briefly: Inhibition of haloperidol-induced catalepsy in rat at 1 or 3 mg/kg, po after 1 hr. The format is functional.
For data set [6], the system named is Rattus norvegicus. The experiment in a line: Inhibition of haloperidol-induced catalepsy in rat at 1 or 3 mg/kg, po after 4 hrs. It is filed as functional.
For data set [7], the system named is Rattus norvegicus. The experiment in a line: Inhibition of haloperidol-induced catalepsy in rat at 1 mg/kg, po after 4 hrs. It is filed as functional.
The test system of data set [8] is Rattus norvegicus. Briefly: Inhibition of haloperidol-induced catalepsy in rat at 1 mg/kg, po after 1 hr. The format is functional.

Structures are written as SMILES. ≈ marks a conversion by molar mass, not a printed value.

Sequence of Adenosine receptor A2a (P29274 whole entry): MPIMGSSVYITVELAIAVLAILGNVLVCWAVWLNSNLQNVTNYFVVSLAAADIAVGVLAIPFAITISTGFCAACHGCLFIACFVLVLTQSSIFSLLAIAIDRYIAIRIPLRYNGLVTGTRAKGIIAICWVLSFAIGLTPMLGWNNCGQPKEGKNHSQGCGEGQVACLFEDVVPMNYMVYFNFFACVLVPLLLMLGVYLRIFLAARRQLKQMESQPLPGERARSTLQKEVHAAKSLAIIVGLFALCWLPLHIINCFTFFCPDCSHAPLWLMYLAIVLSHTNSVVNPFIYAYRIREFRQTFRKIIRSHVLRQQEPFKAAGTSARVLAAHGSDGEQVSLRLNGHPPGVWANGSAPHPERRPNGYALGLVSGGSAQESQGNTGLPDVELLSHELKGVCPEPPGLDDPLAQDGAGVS
Description for Adenosine receptor A2a: Antagonist activity at human adenosine A2A receptor

The compound `Nc1nc2c(cnn2CCc2ccc3nc(N4CCOCC4)ccc3c2)c2nc(-c3ccco3)nn12` gave an AUC(0-t) at 6 h in data set [1] of 6 ng·h/mL. Further, at Adenosine receptor A2a, affinity was put at a Ki of 1.8 nM.

With `Nc1nc2c(cnn2CCc2ccc(-c3cnccn3)cc2)c2nc(-c3ccco3)nn12`, the solubility (kinetic) in data set [2] is < 4 µM. In [1], this compound registered an AUC(0-t) at 6 h of 114 ng·h/mL. Moreover, the Ki at Adenosine receptor A2a came out at 0.9 nM. Also, the inhibition in vivo at 3 mg/kg in the data set with Rattus norvegicus [3] turned out to be 3%.

Compound `COCCOC(C)c1ccc2cc(CCn3ncc4c3nc(N)n3nc(-c5ccco5)nc43)ccc2n1` (stereo not given) came in with a Ki on Adenosine receptor A2a of 1.5 nM.

`Nc1nc2c(cnn2CCc2ccc3nc(CN4CCOCC4)ccc3c2)c2nc(-c3ccco3)nn12` displayed an AUC(0-t) at 6 h in data set [1] of 656 ng·h/mL. For the same compound, the Ki at Adenosine receptor A2a was 2.3 nM. Also, the inhibition in vivo at 3 mg/kg with Rattus norvegicus [3] and with Rattus norvegicus [4] was 0% in each case.

Take `Nc1nc2c(cnn2CCc2ccc(-c3ccc(OC(F)(F)F)cc3)cc2)c2nc(-c3ccco3)nn12`: the kinetic solubility in [2] is < 5 µM. Besides, the exposure AUC(0-t) at 6 h in data set [1] was found to be 67 ng·h/mL. The inhibition in vivo at 3 mg/kg in the data set with Rattus norvegicus [5] stood at 20%; with Rattus norvegicus [6], 0%. At Adenosine receptor A2a, this compound yielded a Ki of 7.8 nM.

On to `COc1ccc(-c2ccc(CCn3ncc4c3nc(N)n3nc(-c5ccco5)nc43)cc2)cn1`, for which the solubility (kinetic) in data set [2] was < 5 µM. The Ki on Adenosine receptor A2a turned out to be 1.9 nM. In addition, the inhibition in vivo at 3 mg/kg with Rattus norvegicus [3] was 0%.

With `CCc1ccc2cc(CCn3ncc4c3nc(N)n3nc(-c5ccco5)nc43)ccc2n1`, the kinetic solubility in data set [2] is < 2.5 µM. For the same compound, the AUC(0-t) at 6 h in [1] is 450 ng·h/mL. For the same compound, the Ki on Adenosine receptor A2a worked out at 2.7 nM. The inhibition in vivo at 3 mg/kg in the data set on Rattus norvegicus [3] is 38%; in the data set on Rattus norvegicus [4] it was 43%.

For the compound `Nc1nc2c(cnn2CCc2ccc(-c3ccccc3)cc2)c2nc(-c3ccco3)nn12`, the affinity on Adenosine receptor A2a corresponds to a Ki of 1.1 nM.

The compound `Nc1nc2c(cnn2CCc2ccc3nc(C(=O)N4CCOCC4)ccc3c2)c2nc(-c3ccco3)nn12` yielded a solubility (kinetic) in [2] of 100 µM (≈ 51 µg/mL). The compound also returned a Ki on Adenosine receptor A2a of 1.6 nM. The inhibition in vivo at 3 mg/kg was found to be 13% in the data set on Rattus norvegicus [3] and 23% in the data set on Rattus norvegicus [4].

In the case of `Nc1nc2c(cnn2CCc2ccc(-c3cccnc3)cn2)c2nc(-c3ccco3)nn12`, the affinity at Adenosine receptor A2a, expressed as Ki, was 11.4 nM.

In [2], `CC(c1ccc2cc(CCn3ncc4c3nc(N)n3nc(-c5ccco5)nc43)ccc2n1)N1CCOCC1` (stereo not given) displayed a kinetic solubility of 100 µM (≈ 51 µg/mL). This compound also returned an area under the curve AUC(0-t) at 6 h in [1] of 7490 ng·h/mL. Besides, at Adenosine receptor A2a, the Ki stood at 1.3 nM. Besides, the values for the inhibition in vivo at 3 mg/kg in the data set on Rattus norvegicus [3] and in the data set on Rattus norvegicus [4] were 13% and 28%, respectively.

For `Cc1ccc(-c2ccc(CCn3ncc4c3nc(N)n3nc(-c5ccco5)nc43)cc2)cn1`, the kinetic solubility in [2] was < 5 µM. In data set [1], this compound showed an AUC(0-t) at 6 h of 199 ng·h/mL. Further, the figures for the inhibition in vivo at 3 mg/kg in the data set on Rattus norvegicus [5] and with Rattus norvegicus [6] were 60% and 25%, respectively. Further, the Ki on Adenosine receptor A2a was 0.6 nM.

On Adenosine receptor A2a, `Nc1nc2c(cnn2CCc2cccc(-c3cccnc3)c2)c2nc(-c3ccco3)nn12` displayed a Ki of 5.5 nM.

In the case of `Nc1nc2c(cnn2CCc2ccc(-c3cccnc3)cc2)c2nc(-c3ccco3)nn12`, the kinetic solubility in data set [2] is < 4 µM. In addition, the inhibition in vivo at 1 mg/kg amounted to 25% in the data set on Rattus norvegicus [7] and 40% in the data set with Rattus norvegicus [8]. The same compound returned an AUC(0-t) at 6 h in data set [1] of 351 ng·h/mL. The same compound showed a Ki at Adenosine receptor A2a of 1.5 nM.

As to `Cc1ccc2cc(CCn3ncc4c3nc(N)n3nc(-c5ccco5)nc43)ccc2n1`, in data set [2], the kinetic solubility was determined as 6 µM (≈ 2.46 µg/mL). The same compound had an AUC(0-t) at 6 h in [1] of 1400 ng·h/mL. The compound further showed a Ki on Adenosine receptor A2a of 2.4 nM. Also, the inhibition in vivo at 3 mg/kg with Rattus norvegicus [3] was 38%; in the data set with Rattus norvegicus [4], 86%.

For `COc1ccc(-c2ccc(CCn3ncc4c3nc(N)n3nc(-c5ccco5)nc43)cc2)cc1`, the solubility (kinetic) in [2] is < 5 µM. For the same compound, the inhibition in vivo at 1 mg/kg in the data set with Rattus norvegicus [7] worked out at 5%; with Rattus norvegicus [8] it was 30%. The Ki on Adenosine receptor A2a is 0.5 nM.
